Results from US7488834B2, “Organic semiconductors” (Alcatel-Lucent USA Inc., priority 2005, dated 2009).

Legend:
[1] = Solubility in organic solvents; type: physicochemical
Procedure: Before fabricating the FETs, the solubility of the two semiconductor compositions in tetrahydrofuran (THF) was determined.

[2] = Solubility in organic solvents; type: physicochemical; remark: listed apart in the source
[3] = Viscosity of formulation or solution; type: physicochemical; conditions: c = 500 ppm, cyclohexanol/THFA/THF = 86:9:5

Row | SMILES | solubility in THF ([1]; THF) | melting point [°C] | also measured
1 | CC(CO)COc1ccc(-c2ccc(-c3ccc(-c4ccc(OCC(C)CO)cc4)s3)s2)cc1 (stereo not shown) [3(3OH,2Me)-O-PTTP-O-3(3OH,2Me), 3-(4-{5′-[4-(3-Hydroxy-2-methyl-propoxy)-phenyl]-[2,2′]bithiophenyl-5-yl}-phenoxy)-2-methyl-propan-1-ol] | Low solubility in THF(600 ppm) | – | –
2 | CC(COc1ccc(-c2ccc(-c3ccc(-c4ccc(OCC(C)COC5CCCCO5)cc4)s3)s2)cc1)COC1CCCCO1 (stereo not shown) [3(3THPO,2Me)-O-PTTP-O-3(THPO,2Me), 5,5′-Bis-[4-(2-methyl-propoxy-tetrahydro-pyran)-phenoxy]-[2,2′]bithiophenyl] | Well soluble in THF(about 75,000 ppm) | – | –
3 | CCCOCCc1ccc(-c2ccc(-c3ccc(-c4ccc(CCOCCC)cc4)s3)s2)cc1 [3O2PTTP2O3, 5,5′-Bis(4-(propxyethyl)phenyl)-2,2′-bithiophene] | – | – | solubility (in words) ([1]; compared with 6PTTP6): Solubility like6PTTP6
4 | CCC(CC)COc1ccc(-c2ccc(-c3ccc(-c4ccc(OCC(CC)CC)cc4)s3)s2)cc1 [4(2Et)-O-PTTP-O-4(2Et), 5,5′-bis(4-(2-ethylbutyloxy)phenyl)-2,2′-bithiophene] | solubility in THF about4,900 ppm | – | –
5 | CC(C)CCCOc1ccc(-c2ccc(-c3ccc(-c4ccc(OCCCC(C)C)cc4)s3)s2)cc1 [5(4Me)-O-PTTP-O-5(4Me), 5,5′-bis(4-(4-methylpentyloxy)phenyl)-2,2′-bithiophene] | solubility in THF about5400 ppm. DSC: mp =250° C., smaller transitionaround 173 °C (couldbe LC) | 250 | –
6 | CCCCCC(CC)Oc1ccc(-c2ccc(-c3ccc(-c4ccc(OC(CC)CCCCC)cc4)s3)s2)cc1 (stereo not shown) [6(1Et)-O-PTTP-O-6(1Et), 5,5′-Bis-[4-(1-ethyl-hexyloxy)-phenyl]-[2,2′]bithiophenyl] | Well soluble in THF(about 330,000 ppm)DSC: mp = 97-102° C.,(broad transition) | 97 to 102 | –
7 | CCCCCC(C)Oc1ccc(-c2ccc(-c3ccc(-c4ccc(OC(C)CCCCC)cc4)s3)s2)cc1 (stereo not shown) [6(1Me)-O-PTTP-O-6(1Me), 5,5′bis(4-(1-methylhexyloxy)phenyl)-2,2′-bithiophene] | – | 143 | solubility in THF relative to 7(2Me)-PTTP-7(2Me) ([1]; THF): approximately twice; solubility in 2-Ethylhexanol ([2]; 2-Ethylhexanol): ~800 ppm; solubility in THF/cyclohexanol 2:8 ([2]; THF/cyclohexanol 2:8 (viscosity 9 mPas)): 4,000 ppm; solubility in o-xylene [2]: 54,000 ppm
8 | CCCCC(CC)COc1ccc(-c2ccc(-c3ccc(-c4ccc(OCC(CC)CCCC)cc4)s3)s2)cc1 (stereo not shown) [6(2Et)-O-PTTP-O-6(2Et), 5,5′-bis(4-(2-ethylhexyloxy)phenyl)-2,2′-bithiophene] | ~70,000 ppm | 148 | solubility in o-xylene [2]: ~25,000 ppm; viscosity η of formulation [3]: 22 mPas
9 | CCCCC(C)COc1ccc(-c2ccc(-c3ccc(-c4ccc(OCC(C)CCCC)cc4)s3)s2)cc1 (stereo not shown) [6(2Me)-O-PTTP-O-6(2Me), 5,5′-bis(4-(2-methylhexyloxy)phenyl)-2,2′-bithiophene] | sufficiently soluble in THF(about 61,000 ppm)DSC: mp = 197 °C | 197 | –
10 | CC(C)(C)[Si](OCCCCCCOc1ccc(-c2ccc(-c3ccc(-c4ccc(OCCCCCCO[Si](c5ccccc5)(c5ccccc5)C(C)(C)C)cc4)s3)s2)cc1)(c1ccccc1)c1ccccc1 [6(6TBDPSO)-O-PTTP-O-6(6TBDPSO), 5,5′-Bis-{4-[6-(tert-butyl-diphenyl-silanyloxy)-hexyloxy]-phenyl}-[2,2′]bithiophenyl] | Well soluble in THF(about 310,000 ppm); | – | –
11 | CCCCCCOc1ccc(-c2ccc(-c3ccc(-c4ccc(OCCCCCC)cc4)s3)s2)cc1 [6-O-PTTP-O-6, 5,5′-bis(4-hexyloxyphenyl)-2,2′-bithiophene] | solubility in THF about600 ppm, lowest value byfar. Differential scanningcalorimetry (“DSC”);melting point = 243° C.,smaller transitions at 65,148, 176, 255, 261° C.(doastereomers or LC) | 243 | –
12 | C=CC(C=C)OC(=O)CCCCCOc1ccc(-c2ccc(-c3ccc(-c4ccc(OCCCCCC(=O)OC(C=C)C=C)cc4)s3)s2)cc1 [6-[4-(5′-[5-(1-Vinyl-allyloxycarbonyl)-pentyloxy]-phenyl}-[2,2′]bithiophenyl-5-yl)-phenoxy]-hexanoic acid 1-vinyl-allyl ester] | well soluble in THF(131,000 ppm) | – | –
13 | CC(C)CCCC(C)CCOc1ccc(-c2ccc(-c3ccc(-c4ccc(OCCC(C)CCCC(C)C)cc4)s3)s2)cc1 (stereo not shown) [8(3,7Me)-O-PTTP-O-8(3,7Me), 5,5′-bis(4-(3,7-dimethyloctyloxy)phenyl)-2,2′-bithiophene] | solubility in THF about12,000 ppmDCS: mp = 192° C., smallertransition at 143° C.(diastereomer or LC) | 192 | –
